Patent US10004701B2, “Methods and compositions for treating infection” (UNIVERSITY OF ROCHESTER, priority 2012, dated 2018)
Structures can show the parent of a compound that is named as a salt. Where two headings read alike, the source gives them in different places.

Key:
Test in all cases: AK assay 384-well format, Prestwick library screening
[1] = system: S. aureus strain USA300-0114; type: cell-based, Staphylococcus aureus; settings: 50 μM final drug concentration; for fold induction at 50 µM: Staphylococcus aureus, USA300, 3 h
[2] = system: K. pneumoniae; type: cell-based, Klebsiella pneumoniae; settings: 50 μM final drug concentration; for fold induction at 50 µM: Klebsiella pneumoniae, 3 h
[3] = system: A. baumannii strain 98-37-09; type: cell-based, Acinetobacter baumannii; settings: 50 μM final drug concentration; for fold induction at 50 µM: Acinetobacter baumannii, 983709, 3 h
[4] = system: P. aeruginosa; type: cell-based, Pseudomonas aeruginosa; settings: 50 μM final drug concentration; for fold induction at 50 µM: Pseudomonas aeruginosa, 3 h
[5] = system: E. faecium; type: cell-based, Enterococcus faecium; settings: 50 μM final drug concentration; for fold induction at 50 µM: Enterococcus faecium, 3 h
[6] = system: E. coli; type: cell-based, Escherichia coli; settings: 50 μM final drug concentration; for fold induction at 50 µM: Escherichia coli, 3 h
[7] = system: E. cloacae; type: cell-based, Enterobacter cloacae; settings: 50 μM final drug concentration; for fold induction at 50 µM: Enterobacter cloacae, 3 h
[8] = planktonic S. aureus, cutoff for positive-scoring molecules 3-fold increase
[9] = planktonic K. pneumoniae, cutoff for positive-scoring molecules 3-fold increase
[10] = planktonic A. baumannii, cutoff for positive-scoring molecules 3-fold increase
[11] = planktonic P. aeruginosa, cutoff for positive-scoring molecules 3-fold increase
[12] = planktonic E. faecium, cutoff for positive-scoring molecules 3-fold increase
[13] = planktonic E. coli, cutoff for positive-scoring molecules 3-fold increase
[14] = planktonic E. cloacae, cutoff for positive-scoring molecules 3-fold increase
[15] = 384-well format, cutoff for positive-scoring molecules 3-fold increase, read-out: AK-based Prestwick Library Screening Results, S. aureus (increase in extracellular AK activity)
[16] = 384-well format, cutoff for positive-scoring molecules 3-fold increase, read-out: AK-based Prestwick Library Screening Results, K. pneumoniae (increase in extracellular AK activity)
[17] = 384-well format, cutoff for positive-scoring molecules 3-fold increase, read-out: AK-based Prestwick Library Screening Results, A. baumannii (increase in extracellular AK activity)
[18] = 384-well format, cutoff for positive-scoring molecules 3-fold increase, read-out: AK-based Prestwick Library Screening Results, P. aeruginosa (increase in extracellular AK activity)
[19] = 384-well format, cutoff for positive-scoring molecules 3-fold increase, read-out: AK-based Prestwick Library Screening Results, E. faecium (increase in extracellular AK activity)
[20] = 384-well format, cutoff for positive-scoring molecules 3-fold increase, read-out: AK-based Prestwick Library Screening Results, E. coli (increase in extracellular AK activity)
[21] = 384-well format, cutoff for positive-scoring molecules 3-fold increase, read-out: AK-based Prestwick Library Screening Results, E. cloacae (increase in extracellular AK activity)
[22] = planktonic S. aureus, […], read-out: AK-based Prestwick Library Screening Results, S. aureus (increase in extracellular AK activity)
[23] = planktonic K. pneumoniae, […], read-out: AK-based Prestwick Library Screening Results, K. pneumoniae (increase in extracellular AK activity)
[24] = planktonic A. baumannii, […], read-out: AK-based Prestwick Library Screening Results, A. baumannii (increase in extracellular AK activity)
[25] = planktonic P. aeruginosa, […], read-out: AK-based Prestwick Library Screening Results, P. aeruginosa (increase in extracellular AK activity)
[26] = planktonic E. faecium, […], read-out: AK-based Prestwick Library Screening Results, E. faecium (increase in extracellular AK activity)
[27] = planktonic E. coli, […], read-out: AK-based Prestwick Library Screening Results, E. coli (increase in extracellular AK activity)
[28] = planktonic E. cloacae, […], read-out: AK-based Prestwick Library Screening Results, E. cloacae (increase in extracellular AK activity)

CC(=O)c1ccc2c(c1)N(CCCN(C)C)c1ccccc1S2.O=C(O)/C=C\C(=O)O [Acetopromazine maleate salt]
AK-based Prestwick Library Screening Results, S. aureus (increase in extracellular AK activity) [1, 8]: 0.8
AK-based Prestwick Library Screening Results, K. pneumoniae (increase in extracellular AK activity) [2, 9]: 0.6
AK-based Prestwick Library Screening Results, A. baumannii (increase in extracellular AK activity) [3, 10]: 0.8
AK-based Prestwick Library Screening Results, P. aeruginosa (increase in extracellular AK activity) [4, 11]: 0.7
AK-based Prestwick Library Screening Results, E. faecium (increase in extracellular AK activity) [5, 12]: 1.0
AK-based Prestwick Library Screening Results, E. coli (increase in extracellular AK activity) [6, 13]: 0.8
AK-based Prestwick Library Screening Results, E. cloacae (increase in extracellular AK activity) [7, 14]: 0.8

CC(=O)Oc1ccccc1C(=O)Oc1ccccc1C(=O)O [Acetylsalicylsalicylic acid]
fold induction at 50 µM [1, 15]: 0.7
fold induction at 50 µM [2, 16]: 0.6
fold induction at 50 µM [3, 17]: 0.7
fold induction at 50 µM [4, 18]: 0.6
fold induction at 50 µM [5, 19]: 1
fold induction at 50 µM [6, 20]: 0.6
fold induction at 50 µM [7, 21]: 0.8

CCN1C[C@]2(COC)[C@H](O)C[C@H](OC)[C@@]34[C@@H]5C[C@@]6(O)[C@H](OC(=O)c7ccccc7)[C@@H]5[C@@](OC(C)=O)([C@@H]([C@H](OC)[C@H]23)[C@@H]14)[C@@H](O)[C@@H]6OC [Aconitine]
fold induction at 50 µM [1, 22]: 0.5
fold induction at 50 µM [2, 23]: 0.5
fold induction at 50 µM [3, 24]: 0.6
fold induction at 50 µM [4, 25]: 0.5
fold induction at 50 µM [5, 26]: 0.9
fold induction at 50 µM [6, 27]: 0.6
fold induction at 50 µM [7, 28]: 0.6

Nc1nc2c(ncn2COCCO)c(=O)[nH]1 [Acyclovir]
fold induction at 50 µM [1, 15]: 0.5
fold induction at 50 µM [2, 16]: 0.5
fold induction at 50 µM [3, 17]: 0.4
fold induction at 50 µM [4, 18]: 0.4
fold induction at 50 µM [5, 19]: 0.9
fold induction at 50 µM [6, 20]: 0.5
fold induction at 50 µM [7, 21]: 0.3

NC12CC3CC(CC(C3)C1)C2.NC12CC3CC(CC(C3)C1)C2.O=C(O)/C=C/C(=O)O [Adamantamine fumarate]
AK-based Prestwick Library Screening Results: S. aureus (increase in extracellular AK activity) ([1]; planktonic S. aureus, 384-well, cutoff for positive-scoring molecules 3-fold increase): 0.4
AK-based Prestwick Library Screening Results: K. pneumoniae (increase in extracellular AK activity) ([2]; planktonic K. pneumoniae, 384-well, cutoff for positive-scoring molecules 3-fold increase): 0.5
AK-based Prestwick Library Screening Results: A. baumannii (increase in extracellular AK activity) ([3]; planktonic A. baumannii, 384-well, cutoff for positive-scoring molecules 3-fold increase): 0.5
AK-based Prestwick Library Screening Results: P. aeruginosa (increase in extracellular AK activity) ([4]; planktonic P. aeruginosa, 384-well, cutoff for positive-scoring molecules 3-fold increase): 0.4
AK-based Prestwick Library Screening Results: E. faecium (increase in extracellular AK activity) ([5]; planktonic E. faecium, 384-well, cutoff for positive-scoring molecules 3-fold increase): 0.9
AK-based Prestwick Library Screening Results: E. coli (increase in extracellular AK activity) ([6]; planktonic E. coli, 384-well, cutoff for positive-scoring molecules 3-fold increase): 0.5
AK-based Prestwick Library Screening Results: E. cloacae (increase in extracellular AK activity) ([7]; planktonic E. cloacae, 384-well, cutoff for positive-scoring molecules 3-fold increase): 0.4

Nc1ncnc2c1ncn2[C@@H]1O[C@H](COP(=O)(O)O)[C@@H](O)[C@H]1O [Adenosine 5′-monophosphate monohydrate]
fold induction at 50 µM [1, 22]: 0.6
fold induction at 50 µM [2, 23]: 0.6
fold induction at 50 µM [3, 24]: 0.7
fold induction at 50 µM [4, 25]: 0.8
fold induction at 50 µM [5, 26]: 0.8
fold induction at 50 µM [6, 27]: 0.8
fold induction at 50 µM [7, 28]: 1.2

CCN(CC)CCOC(=O)C(c1ccccc1)c1ccccc1 [Adiphenine hydrochloride]
fold induction at 50 µM ([1]; planktonic S. aureus, 384-well, cutoff for positive-scoring molecules 3-fold increase, read-out: AK-based Prestwick Library Screening Results: S. aureus (increase in extracellular AK activity)): 1.3
fold induction at 50 µM ([2]; planktonic K. pneumoniae, 384-well, cutoff for positive-scoring molecules 3-fold increase, read-out: AK-based Prestwick Library Screening Results: K. pneumoniae (increase in extracellular AK activity)): 1
fold induction at 50 µM ([3]; planktonic A. baumannii, 384-well, cutoff for positive-scoring molecules 3-fold increase, read-out: AK-based Prestwick Library Screening Results: A. baumannii (increase in extracellular AK activity)): 1.3
fold induction at 50 µM ([4]; planktonic P. aeruginosa, 384-well, cutoff for positive-scoring molecules 3-fold increase, read-out: AK-based Prestwick Library Screening Results: P. aeruginosa (increase in extracellular AK activity)): 0.9
fold induction at 50 µM ([5]; planktonic E. faecium, 384-well, cutoff for positive-scoring molecules 3-fold increase, read-out: AK-based Prestwick Library Screening Results: E. faecium (increase in extracellular AK activity)): 1
fold induction at 50 µM ([6]; planktonic E. coli, 384-well, cutoff for positive-scoring molecules 3-fold increase, read-out: AK-based Prestwick Library Screening Results: E. coli (increase in extracellular AK activity)): 1.2
fold induction at 50 µM ([7]; planktonic E. cloacae, 384-well, cutoff for positive-scoring molecules 3-fold increase, read-out: AK-based Prestwick Library Screening Results: E. cloacae (increase in extracellular AK activity)): 1.5

C[C@]12CCC(=O)C=C1CC[C@@H]1[C@@H]2C(=O)C[C@]2(C)C(=O)CC[C@@H]12 [Adrenosterone]
AK-based Prestwick Library Screening Results, S. aureus (fold increase in extracellular AK activity) ([1]; planktonic, […]): 0.6
AK-based Prestwick Library Screening Results, K. pneumoniae (fold increase in extracellular AK activity) ([2]; planktonic, […]): 0.6
AK-based Prestwick Library Screening Results, A. baumannii (fold increase in extracellular AK activity) ([3]; planktonic, […]): 0.8
AK-based Prestwick Library Screening Results, P. aeruginosa (fold increase in extracellular AK activity) ([4]; planktonic, […]): 0.6
AK-based Prestwick Library Screening Results, E. faecium (fold increase in extracellular AK activity) ([5]; planktonic, […]): 0.9
AK-based Prestwick Library Screening Results, E. coli (fold increase in extracellular AK activity) ([6]; planktonic, […]): 0.7
AK-based Prestwick Library Screening Results, E. cloacae (fold increase in extracellular AK activity) ([7]; planktonic, […]): 1.2

COC(=O)C1=CO[C@@H](C)[C@H]2CN3CCc4c([nH]c5ccccc45)[C@@H]3C[C@H]12.Cl [Ajmalicine hydrochloride]
AK-based Prestwick Library Screening Results, S. aureus (increase in extracellular AK activity) [1, 8]: 0.5
AK-based Prestwick Library Screening Results, K. pneumoniae (increase in extracellular AK activity) [2, 9]: 0.7
AK-based Prestwick Library Screening Results, A. baumannii (increase in extracellular AK activity) [3, 10]: 0.9
AK-based Prestwick Library Screening Results, P. aeruginosa (increase in extracellular AK activity) [4, 11]: 0.9
AK-based Prestwick Library Screening Results, E. faecium (increase in extracellular AK activity) [5, 12]: 0.9
AK-based Prestwick Library Screening Results, E. coli (increase in extracellular AK activity) [6, 13]: 0.9
AK-based Prestwick Library Screening Results, E. cloacae (increase in extracellular AK activity) [7, 14]: 1.2

CC[C@H]1[C@@H]2C[C@H]3[C@@H]4N(C)c5ccccc5[C@]45C[C@@H]([C@H]2[C@H]5O)N3[C@@H]1O [Ajmaline]
fold induction at 50 µM ([1]; planktonic, […], read-out: AK-based Prestwick Library Screening Results, S. aureus (fold increase in extracellular AK activity)): 1
fold induction at 50 µM ([2]; planktonic, […], read-out: AK-based Prestwick Library Screening Results, K. pneumoniae (fold increase in extracellular AK activity)): 0.9
fold induction at 50 µM ([3]; planktonic, […], read-out: AK-based Prestwick Library Screening Results, A. baumannii (fold increase in extracellular AK activity)): 1.1
fold induction at 50 µM ([4]; planktonic, […], read-out: AK-based Prestwick Library Screening Results, P. aeruginosa (fold increase in extracellular AK activity)): 1.1
fold induction at 50 µM ([5]; planktonic, […], read-out: AK-based Prestwick Library Screening Results, E. faecium (fold increase in extracellular AK activity)): 1.1
fold induction at 50 µM ([6]; planktonic, […], read-out: AK-based Prestwick Library Screening Results, E. coli (fold increase in extracellular AK activity)): 1.2
fold induction at 50 µM ([7]; planktonic, […], read-out: AK-based Prestwick Library Screening Results, E. cloacae (fold increase in extracellular AK activity)): 1.6
